Molecular target: Serine/threonine-protein kinase PLK1 (Homo sapiens, UniProt P53350)
Assay: H2O2 production by redox-active compounds – biochemical, 1 mM DTT, artefact control for Plk1 PBD inhibitor project, dose response (AID 936)

Sequence of Serine/threonine-protein kinase PLK1 (P53350 whole entry): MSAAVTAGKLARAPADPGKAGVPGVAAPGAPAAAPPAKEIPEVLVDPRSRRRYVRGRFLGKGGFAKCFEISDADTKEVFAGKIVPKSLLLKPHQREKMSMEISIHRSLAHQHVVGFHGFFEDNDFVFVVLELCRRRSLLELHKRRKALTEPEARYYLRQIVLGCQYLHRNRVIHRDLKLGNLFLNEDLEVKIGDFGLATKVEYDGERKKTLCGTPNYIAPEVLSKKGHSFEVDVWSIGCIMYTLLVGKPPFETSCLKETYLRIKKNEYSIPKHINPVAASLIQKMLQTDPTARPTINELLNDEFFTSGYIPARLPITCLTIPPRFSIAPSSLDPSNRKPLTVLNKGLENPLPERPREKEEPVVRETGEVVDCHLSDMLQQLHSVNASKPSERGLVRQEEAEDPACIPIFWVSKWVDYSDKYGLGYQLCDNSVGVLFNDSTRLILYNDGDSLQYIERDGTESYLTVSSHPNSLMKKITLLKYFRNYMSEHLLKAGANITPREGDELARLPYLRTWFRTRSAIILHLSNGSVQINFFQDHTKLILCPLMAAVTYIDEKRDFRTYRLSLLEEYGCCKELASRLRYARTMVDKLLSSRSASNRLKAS

Structure (SMILES) | EC50 [µM]
CCC(=O)N1CCN(c2ccc(NC(=O)c3ccc4c(c3)OCO4)cc2)CC1 [Benzo[1,3]dioxole-5-carboxylic acid [4-(4-propionyl-piperazin-1-yl)-phenyl]-amide] | > 50
Cc1ccc(CNC(=O)c2cc3c(=O)n(C)c4ccccc4c3n2C)cc1 [1,5-dimethyl-N-[(4-methylphenyl)methyl]-4-oxidanylidene-pyrrolo[3,2-c]quinoline-2-carboxamide] | > 50
CC(=O)N1CCc2cc(Br)cc(S(=O)(=O)NCc3ccccn3)c21 [1-acetyl-5-bromo-N-(2-pyridinylmethyl)-2,3-dihydroindole-7-sulfonamide] | > 50
O=C(CNS(=O)(=O)c1ccc(Br)s1)N1CCCC1 [5-bromanyl-N-(2-oxidanylidene-2-pyrrolidin-1-yl-ethyl)thiophene-2-sulfonamide] | > 50
Cc1ccc2cc(C(c3nnnn3C3CCCC3)N3CCN(c4ccccc4)CC3)c(=O)[nH]c2c1 (stereo unspecified) [3-[(1-cyclopentyltetrazol-5-yl)-(4-phenylpiperazin-1-yl)methyl]-7-methyl-1H-quinolin-2-one] | > 50
COc1ccc2c(c1OC)C(=O)OC2CC(=O)O (stereo unspecified) [(4,5-dimethoxy-3-oxo-1,3-dihydro-2-benzofuran-1-yl)acetic acid] | > 50
CCC(=O)Nc1ccc(-c2nnc(SCC(=O)Nc3nccs3)n2C)cc1 [MLS000076456] | > 50
CCC(Sc1nc2nnc(C)c-2c(N)n1-c1cccc(Cl)c1)C(=O)NCCOC (stereo unspecified) [2-[4-amino-5-(3-chlorophenyl)-3-methylpyrazolo[3,4-d]pyrimidin-6-yl]sulfanyl-N-(2-methoxyethyl)butanamide] | > 50
COc1ccccc1C1SCCN1S(=O)(=O)c1cccc(C(F)(F)F)c1 (stereo unspecified) [2-(2-Methoxy-phenyl)-3-(3-trifluoromethyl-benzenesulfonyl)-thiazolidine] | > 50
O=C(NC1(O)C(=O)c2ccccc2C1=O)c1ccccc1 [N-(2-hydroxy-1,3-dioxo-2-indenyl)benzamide] | > 50
COC(=O)CNC(=O)C12CC3(C)CC(C)(CC(C)(C3)C1)C2 [2-[[oxo-(3,5,7-trimethyl-1-adamantyl)methyl]amino]acetic acid methyl ester] | > 50
O=NCc1cc(Br)ccc1OCC(=O)O [2-[4-bromanyl-2-(hydroxyiminomethyl)phenoxy]ethanoic acid] | > 50
CCCSc1nc(N2CCOCC2)c2c(c1C#N)CCCC2 [1-(4-morpholinyl)-3-(propylthio)-5,6,7,8-tetrahydroisoquinoline-4-carbonitrile] | > 50
O=C1C(=C2C(=O)c3ccccc3C2=O)Nc2ccccc21 [MLS000071738] | > 50
CCc1nc2cc(Cl)c(Cl)cc2[nH]1 [MLS000064722] | > 50
COc1cccc(OC)c1C(=O)N1CCN(c2ccccn2)CC1 [(2,6-dimethoxyphenyl)-(4-pyridin-2-ylpiperazin-1-yl)methanone] | > 50

— BindingDB's records for doi:10.7270/Q2N58JS6 (University of Pittsburgh, 2007)
